Experiment: method code SF-AS, from PMID: 754638
Details: not given

SMILES | logP
COc1cc(S(=O)(=O)CCC(C)C)cc(OC)c1OC | 2.12
CCCS(=O)(=O)c1cc(OC)c(OC)c(OC)c1 | 1.56
COc1cc(S(=O)(=O)CCN2CCOCC2)cc(OC)c1OC | 1.29

Continued, values first:

logP | SMILES
1.34 | C=CCS(=O)(=O)c1cc(OC)c(OC)c(OC)c1
0.18 | COc1cc(S(=O)(=O)CCO)cc(OC)c1OC
1.65 | COc1cc(S(=O)(=O)CC(O)c2ccccc2)cc(OC)c1OC (centres undefined)
1.05 | CCS(=O)(=O)c1cc(OC)c(OC)c(OC)c1

Same assay, conditions: pH 7.3

logD | SMILES
2.05 | CCCCN(C)CCS(=O)(=O)c1cc(OC)c(OC)c(OC)c1
1.6 | COc1cc(S(=O)(=O)CCN2CCCCC2)cc(OC)c1OC
